Assay results reported in patent US6569881B1, “Substituted benzimidazole, the production thereof and the use thereof as means against parasitic protozoa” (Bayer Aktiengesellschaft, priority 1999, dated 2003).

Legend:
Type in all cases: in vivo, chicken chicks
Eimeria maxima = assay: Cage experiments coccidiosis/chicks, Eimeria maxima part of the mixed infection; settings: for Efficacy against Eimeria maxima (grade): second symbol of cell; for Efficacy against Eimeria maxima (grade): key: 2 = complete action; 1 = weak action; 0 = inactive; D = death
Description: (§1) The efficacy of the compounds according to the invention can be confirmed, for example, in cage experiments using the following experimental arrangement, in which the animals are treated with the respective individual components and with the mixtures of the individual components.
(§2) An active compound-containing feed is prepared in such a way that the required amount of active compound is thoroughly mixed with a nutritionally balanced animal feed, e.g. with the chick feed indicated below.
(§3) 8 to 12 day-old male chicken chicks raised under coccidea-free conditions (e.g. LSL Brinkschulte/Senden) receive the compounds according to the invention (test substances) from 3 days before (day -3) the infection (=a.i.) until 8 (9) days after the infection (=p.i.) with the feed in the concentration indicated in ppm. Three animals are kept in each cage. Per dose, one to a number of groups of this type are employed. Infection is carried out by means of a stomach tube directly into the crop using approximately 100,000 sporulated oocysts of Eimeria acervulina and with in each case approximately 30,000 oocysts of E. maxima and 40,000 sporulated oocysts of E. tenella. These are highly virulent strains. The exact infectious dose is adjusted such that if possible one of three experimentally infected untreated chicks dies due to infection. For the assessment of the efficacy, the following criteria are taken into consideration: weight increase from the start of the experiment to the end of the experiment, death rate due to infection, macroscopic assessment of the faeces with respect to diarrhoea and excretion of blood on days 5 and 7 p.i. (grade 0 to 6), macroscopic grade of the intestinal mucous membrane, in particular of the cecums (grade 0 to 6) and the oocyst excretion and also the proportion (in %) of the oocysts sporulating within 24 hours. The number of oocysts in the faeces was determined with the aid of the McMaster counting chamber (see Engelbrecht and coworkers “Parasitologische Arbeitsmethoden in Medizin und Veterinärmedizin, [Parasitological working methods in medicine and veterinary medicine] Akademie-Verlag, Berlin (1965)). The individual findings are related to the untreated noninfected control groups and an overall grade is calculated (cf. A. Haberkorn (1986), pp. 263 to 270 in Research in Avian Coccidiosis ed L. R. McDougald, L. P. Joyner, P. L. Long Proceedings of the Georgia Coccidiosis Conference Nov, 18-20, 1985 Athens/Ga. USA).
(§4) In the columns “dropping scores”, “lesion score” and “oocyst control”, individual details of the action are given.

Eimeria acervulina = assay: Cage experiments coccidiosis/chicks, Eimeria acervulina part of the mixed infection; settings: for Efficacy against Eimeria acervulina (grade): first symbol of cell; for Efficacy against Eimeria acervulina (grade): key: 2 = complete action; 1 = weak action; 0 = inactive; D = death
Description: as §1, §2, §3, §4

Eimeria tenella = assay: Cage experiments coccidiosis/chicks, Eimeria tenella part of the mixed infection; settings: for Efficacy against Eimeria tenella (grade): third symbol of cell; for Efficacy against Eimeria tenella (grade): key: 2 = complete action; 1 = weak action; 0 = inactive; D = death
Description: as §1, §2, §3, §4

[1] = test system: Eimeria acervulina, Eimeria maxima and Eimeria tenella; assay: Cage experiments coccidiosis/chicks, mixed experimental infection; settings: for dropping scores / lesion score: grade 0 to 6
Description: as §1, §2, §3
In the column “ppm”, the concentration of the active compound employed in the feed is indicated in ppm.
In the column “mortality”, the percentage of the animals which have died is indicated under % and the number of the animals which have died/animals employed in the experiment is indicated under n.
In the column “weight % of not inf. control”, the ratio of the weight of the treated animals to the weight of the noninfected control group is indicated.
as §4
In the column “% efficacy”, the overall rating is assessed; 0% means no action, 100% means complete action.

SMILES: Cc1oc(=O)oc1Cn1c(C(F)(F)F)nc2cc(C(F)(F)F)c(Cl)cc21 [Example 19]
- oocyst in % of inf. control max. (Eimeria maxima; 5 ppm in feed): >100%
- oocyst in % of inf. control max. (Eimeria maxima; 10 ppm in feed): 13%
- oocyst in % of inf. control max. (Eimeria maxima; 25 ppm in feed): >100%
- Efficacy against Eimeria maxima (grade) (Eimeria maxima; Dose 5 ppm): 0
- Efficacy against Eimeria maxima (grade) (Eimeria maxima; Dose 10 ppm): 1
- Efficacy against Eimeria maxima (grade) (Eimeria maxima; Dose 25 ppm): 0
- oocyst in % of inf. control ac. (Eimeria acervulina; 5 ppm in feed): >100%
- oocyst in % of inf. control ac. (Eimeria acervulina; 10 ppm in feed): 5%
- oocyst in % of inf. control ac. (Eimeria acervulina; 25 ppm in feed): >100%
- Efficacy against Eimeria acervulina (grade) (Eimeria acervulina; Dose 5 ppm): 0
- Efficacy against Eimeria acervulina (grade) (Eimeria acervulina; Dose 10 ppm): 2
- Efficacy against Eimeria acervulina (grade) (Eimeria acervulina; Dose 25 ppm): 0
- oocyst in % of inf. control ten. (Eimeria tenella; 5 ppm in feed): >100%
- oocyst in % of inf. control ten. (Eimeria tenella; 10 ppm in feed): 5%
- oocyst in % of inf. control ten. (Eimeria tenella; 25 ppm in feed): >100%
- Efficacy against Eimeria tenella (grade) (Eimeria tenella; Dose 5 ppm): 0
- Efficacy against Eimeria tenella (grade) (Eimeria tenella; Dose 10 ppm): 1
- Efficacy against Eimeria tenella (grade) (Eimeria tenella; Dose 25 ppm): 0
- % efficacy tot. ([1]; 5 ppm in feed): 7%
- mortality % ([1]; 5 ppm in feed): 0%
- mortality n (died/employed) ([1]; 5 ppm in feed): 0/3
- oocyst in % of inf. control tot. ([1]; 5 ppm in feed): >100%
- weight % of not inf. control ([1]; 5 ppm in feed): 52%
- dropping scores ([1]; 5 ppm in feed): 4
- lesion score ([1]; 5 ppm in feed): 6
- % efficacy tot. ([1]; 10 ppm in feed): 66%
- mortality % ([1]; 10 ppm in feed): 0%
- mortality n (died/employed) ([1]; 10 ppm in feed): 0/3
- oocyst in % of inf. control tot. ([1]; 10 ppm in feed): 5%
- weight % of not inf. control ([1]; 10 ppm in feed): 75%
- dropping scores ([1]; 10 ppm in feed): 3
- lesion score ([1]; 10 ppm in feed): 4
- % efficacy tot. ([1]; 25 ppm in feed): 7%
- mortality % ([1]; 25 ppm in feed): 0%
- mortality n (died/employed) ([1]; 25 ppm in feed): 0/3
- oocyst in % of inf. control tot. ([1]; 25 ppm in feed): >100%
- weight % of not inf. control ([1]; 25 ppm in feed): 56%
- dropping scores ([1]; 25 ppm in feed): 6
- lesion score ([1]; 25 ppm in feed): 6

SMILES: Cc1oc(=O)oc1Cn1c(C(F)(F)F)nc2c(C(F)(F)F)cc(C(F)(F)F)cc21 [Example 28]
- oocyst in % of inf. control max. (Eimeria maxima; 5 ppm in feed): 2%
- oocyst in % of inf. control max. (Eimeria maxima; 10 ppm in feed): 0%
- Efficacy against Eimeria maxima (grade) (Eimeria maxima; Dose 5 ppm): 2
- Efficacy against Eimeria maxima (grade) (Eimeria maxima; Dose 10 ppm): 2
- oocyst in % of inf. control ac. (Eimeria acervulina; 5 ppm in feed): 2%
- oocyst in % of inf. control ac. (Eimeria acervulina; 10 ppm in feed): 0%
- Efficacy against Eimeria acervulina (grade) (Eimeria acervulina; Dose 5 ppm): 2
- Efficacy against Eimeria acervulina (grade) (Eimeria acervulina; Dose 10 ppm): 2
- oocyst in % of inf. control ten. (Eimeria tenella; 5 ppm in feed): 0%
- oocyst in % of inf. control ten. (Eimeria tenella; 10 ppm in feed): 0%
- Efficacy against Eimeria tenella (grade) (Eimeria tenella; Dose 5 ppm): 2
- Efficacy against Eimeria tenella (grade) (Eimeria tenella; Dose 10 ppm): 2
- % efficacy tot. ([1]; 5 ppm in feed): 75%
- mortality % ([1]; 5 ppm in feed): 0%
- mortality n (died/employed) ([1]; 5 ppm in feed): 0/3
- oocyst in % of inf. control tot. ([1]; 5 ppm in feed): 1%
- weight % of not inf. control ([1]; 5 ppm in feed): 85%
- dropping scores ([1]; 5 ppm in feed): 6
- lesion score ([1]; 5 ppm in feed): 1
- % efficacy tot. ([1]; 10 ppm in feed): 91%
- mortality % ([1]; 10 ppm in feed): 0%
- mortality n (died/employed) ([1]; 10 ppm in feed): 0/3
- oocyst in % of inf. control tot. ([1]; 10 ppm in feed): 0%
- weight % of not inf. control ([1]; 10 ppm in feed): 82%
- dropping scores ([1]; 10 ppm in feed): 0
- lesion score ([1]; 10 ppm in feed): 0
- mortality % ([1]; 25 ppm in feed): 100%
- mortality n (died/employed) ([1]; 25 ppm in feed): 3/3
- dropping scores ([1]; 25 ppm in feed): 0
